What was measured:
Assay in all cases: IL-1Ra release from human primary monocytes, immunoassay (ELISA) of supernatants
Type in all cases: cell-based
[1] = system: IL-1Ra release from human primary monocytes; parameters: key: +: Ability to induce IL-1Ra on primary monocytes after 48 h of incubation; Ability to induce IL-1Ra on primary monocytes after 48 h of incubation; conditions: for Act. (ability to induce IL-1Ra): primary monocytes, 48 h; for IL-1Ra: ability to induce IL-1Ra on primary monocytes after 48 h of incubation, class + / -
Protocol: (§1) As an activity screen we focused on interleukin‐1 receptor antagonist (IL‐1Ra), a cytokine released by circulating antigen presenting cells (APC) in response to GA.[15, 35] […] To test our dendrimers, we quantified by immunoassay the release of IL‐1Ra from human primary monocytes of healthy donors, an easily accessible type of APC, stimulated or not by addition of lipopolysaccharide (LPS), which in our hands provided a reliable read‐out.[15] We tested at defined weight/volume (25 and 50 μg mL^−1 compound as typically reported for GA)[15, 35] to account for a possible activity increase with MW as often observed with dendrimers when using molarity. In the initial screen the levels of secreted IL‐1Ra remained below 1 ng mL^−1 for all the smaller test compounds as well as with the linear peptide analogs of GA.
(§2) Figure 2 Cytokine level of IL‐1Ra in supernatants of primary human monocytes of healthy donors treated with peptide dendrimers, evaluated by ELISA (bars, left vertical axis) and mRNA levels (▴, right vertical axis). […] For mRNA levels evaluation, 2×10^6 cells 3 mL^−1 in 6 well plates were incubated with 50 μg mL^−1 dendrimer or GA for 18 h. […]
(§3) Enzyme-linked immunosorbent assay (ELISA)
(§4) Monocytes (5×10^4 cells/200 μL well; 96-well plates) were preincubated for 1 h with or without compounds in RPMI-1640 medium supplemented with 10% heat-inactivated FBS, 50 μg/mL streptomycin, 50 U/mL penicillin, 2 mM L-glutamine, and 5 μg/mL polymyxin B sulfate and then cultured for 48 h in the presence or absence of LPS (100 ng/mL) (2). The production of IL-1Ra was measured in culture supernatants by commercially available enzyme immunoassay according to manufacture protocol.
(§5) Figure S2. Cytokine level of IL-1Ra in supernatants of monocytes for active dendrimers and analogues evaluated by ELISA assay on primary human monocytes of healthy donors. 5×10^4 cells/200 µL in 96 well plates, were incubated with dendrimers or GA as a control for 48 h in presence or absence of LPS (100 ng/mL), in a range of concentrations (50-25 µg/mL) (mean ± SD, n = 2 different experiments). The results are present as the difference between each sample and the non-treated sample to take into account the difference between base line for each donor.
(§6) Figure S3. Cytokine level of IL-1Ra in supernatants of monocytes for active dendrimers and […]
(§7) presence or absence of LPS (100 ng/mL), in a range of concentrations (100-12.5 µg/mL) (mean ± SD, n = 3 different experiments). […]

[2] = system: IL-1Ra release from human primary monocytes; conditions: primary human monocytes of healthy donors, 25 and 50 μg mL^−1, 48 h
Protocol: as §1, §2, §3, §4, §5, §6, §7

[3] = system: IL-1Ra release from human primary monocytes; parameters: key: +: Ability to induce IL‐1Ra on primary monocytes after 48 h of incubation in the presence of 25–50 μg mL^−1 compound; Ability to induce IL‐1Ra on primary monocytes after 48 h of incubation in the presence of 25–50 μg mL^−1 compound; conditions: for Act. (ability to induce IL-1Ra): Table 1, 48 h, 25–50 μg mL^−1 compound; for IL-1Ra: 48 h
Protocol: as §1, §2, §3, §4, §5, §6, §7

## (ClAcKAE)4(KAEK)2KYYA-OH [ClAc18]
[1]; Table S1 initial library
  Act. (ability to induce IL-1Ra): -
[1]
  IL-1Ra: -

## (KA)8(KKAKE)4(KYKAKA)2KAYKKA-OH [sr-4]
[2]
  IL-1Ra release activity (in words): as active as the pure L‐enantiomers
[1]; Table S2 analogs of 1 and 4
  Act. (ability to induce IL-1Ra): +
[1]
  IL-1Ra: +
[3]
  Act. (ability to induce IL-1Ra): +
[3]; supplement s001.csv
  IL-1Ra: +
[3]; supplement s003.zip SMILES csv
  IL-1Ra: +

## (AK)4(KAEAKAKE)2KKEYEYC(Coumarin)A-NH2 [26Coum]
[1]
  IL-1Ra: -

## (FumKA)8(KKKAK)4(KEKA)2KAKEAYCA-NH2 [Fum36]
[2]
  IL-1Ra release activity (in words): preserved
[1]; Table S2 analogs of 1 and 4
  Act. (ability to induce IL-1Ra): +
[1]
  IL-1Ra: +
[3]
  Act. (ability to induce IL-1Ra): +
[3]; supplement s001.csv
  IL-1Ra: +
[3]; supplement s003.zip SMILES csv
  IL-1Ra: +

## (AcAKA)4(KKEY)2KE-OH [Ac10]
[1]; Table S1 initial library
  Act. (ability to induce IL-1Ra): -
[1]
  IL-1Ra: -

## (AK)4(KAEAKAKE)2KKEYEYCA-NH2 [compound 26]
[1]
  IL-1Ra: -

## (AcAKA)8(KYEK)4(KEKA)2KAKY-OH [Ac3]
[1]; Table S1 initial library
  Act. (ability to induce IL-1Ra): -
[1]
  IL-1Ra: -

## (AK)8(KAK)4(KEKA)2KAKEAYCA-NH2 [compound 34]
[2]
  IL-1Ra release activity (in words): preserved
[1]; Table S2 analogs of 1 and 4
  Act. (ability to induce IL-1Ra): +
[1]
  IL-1Ra: +
[3]
  Act. (ability to induce IL-1Ra): +
[3]; supplement s001.csv
  IL-1Ra: +
[3]; supplement s003.zip SMILES csv
  IL-1Ra: +

## (AK)8(KAKAKY)4(KAKEYEY)2KAKEYEY-NH2 [compound 5]
[1]; Table S1 initial library
  Act. (ability to induce IL-1Ra): -
[1]
  IL-1Ra: -
[3]
  Act. (ability to induce IL-1Ra): −

## (FumAKE)4(KAYA)2KKKK-NH2 [Fum16]
[1]; Table S1 initial library
  Act. (ability to induce IL-1Ra): -
[1]
  IL-1Ra: -

## (ClAcKA)4(KEYA)2KKAK-OH [ClAc7]
[1]; Table S1 initial library
  Act. (ability to induce IL-1Ra): -
[1]
  IL-1Ra: -

## (ClAcKAA)4(KYYE)2KAY-NH2 [AcCl19]
[1]
  IL-1Ra: -

## (AcAKE)4(KKAY)2KYKY-NH2 [Ac22]
[1]
  IL-1Ra: -

## (KA)8(KAK)4(KEKA)2KAKEAYC(Fluo)A-NH2 [1Fl, analog of 1 bearing a fluorescein label at the dendrimer core]
[1]; Table S2 analogs of 1 and 4
  Act. (ability to induce IL-1Ra): +
[1]
  IL-1Ra: +
[3]
  Act. (ability to induce IL-1Ra): +
[3]; supplement s001.csv
  IL-1Ra: +
[3]; supplement s003.zip SMILES csv
  IL-1Ra: +

## (KAEKAYA)4(KEKYAKA)2KEKYKA-NH2 [compound 2]
[1]; Table S1 initial library
  Act. (ability to induce IL-1Ra): -
[1]
  IL-1Ra: -
[3]
  Act. (ability to induce IL-1Ra): −

## (AcAKA)4(KEK)2KYEY-OH [Ac11]
[1]; Table S1 initial library
  Act. (ability to induce IL-1Ra): -
[1]
  IL-1Ra: -

## (ClAcKYA)4(KEA)2KKKA-OH [ClAc14]
[1]; Table S1 initial library
  Act. (ability to induce IL-1Ra): -
[1]
  IL-1Ra: -

## (KK)8(KAK)4(KEKA)2KAKEAYCA-NH2 [compound 35]
[2]
  IL-1Ra release activity (in words): preserved
[1]; Table S2 analogs of 1 and 4
  Act. (ability to induce IL-1Ra): +
[1]
  IL-1Ra: +
[3]
  Act. (ability to induce IL-1Ra): +
[3]; supplement s001.csv
  IL-1Ra: +
[3]; supplement s003.zip SMILES csv
  IL-1Ra: +

## (KAK)4(KEKA)2KAKEAYCA-NH2 [compound 33]
[1]; Table S2 analogs of 1 and 4
  Act. (ability to induce IL-1Ra): -
[1]
  IL-1Ra: -
[3]
  Act. (ability to induce IL-1Ra): −

## (KA)8(KKKAK)4(KEKA)2KAKEAYCA-NH2 [compound 36]
[2]
  IL-1Ra release activity (in words): preserved
[1]; Table S2 analogs of 1 and 4
  Act. (ability to induce IL-1Ra): +
[1]
  IL-1Ra: -
[3]
  Act. (ability to induce IL-1Ra): +
[3]; supplement s001.csv
  IL-1Ra: +

## (FumKA)8(KKAKE)4(KYKAKA)2KAYKKA-OH [Fum4]
[2]
  IL-1Ra release activity (in words): abolished
[1]; Table S1 initial library
  Act. (ability to induce IL-1Ra): -
[1]
  IL-1Ra: -

## (AcAKE)4(KAYA)2KKKK-NH2 [Ac16]
[1]; Table S1 initial library
  Act. (ability to induce IL-1Ra): -
[1]
  IL-1Ra: -

## (FumKA)8(KAK)4(KEKA)2KAKEAYCA-NH2 [Fum1]
[2]
  IL-1Ra release activity (in words): abolished
[1]; Table S1 initial library
  Act. (ability to induce IL-1Ra): -
[1]
  IL-1Ra: -

## (YKAKAKY)4(KEAKAKY)2KAKEYEY-OH [compound 29]
[1]
  IL-1Ra: -

## (AcKAE)4(KAEK)2KYYA-OH [Ac18]
[1]; Table S1 initial library
  Act. (ability to induce IL-1Ra): -
[1]
  IL-1Ra: -

## (KA)8(KAK)4(KEKA)2KAKEAYCA-NH2 [sr-1]
[2]
  IL-1Ra release activity (in words): as active as the pure L‐enantiomers
[1]; Table S2 analogs of 1 and 4
  Act. (ability to induce IL-1Ra): +
[1]
  IL-1Ra: +
[3]
  Act. (ability to induce IL-1Ra): +
[3]; supplement s001.csv
  IL-1Ra: +
[3]; supplement s003.zip SMILES csv
  IL-1Ra: +

## (KAA)4(KEY)2KAKEYEYA-NH2 [compound 24]
[1]
  IL-1Ra: -

## (KAA)8(KKAKAK)4(KAAKKY)2KEKAKCA-OH [compound 30]
[1]
  IL-1Ra: -

## (AcAYK)4(KE)2KKAA-OH [Ac9]
[1]; Table S1 initial library
  Act. (ability to induce IL-1Ra): -
[1]
  IL-1Ra: -

## (ClAcAKA)4(KEK)2KYEY-OH [ClAc11]
[1]; Table S1 initial library
  Act. (ability to induce IL-1Ra): -
[1]
  IL-1Ra: -

## (AcKEAKY)4(KKYEA)2KEKAYKA-NH2 [Ac27]
[1]
  IL-1Ra: -

## (AcKAA)4(KYYE)2KAY-NH2 [Ac19]
[1]
  IL-1Ra: -

## (FumAKA)4(KEY)2KYKK-NH2 [Fum15]
[1]; Table S1 initial library
  Act. (ability to induce IL-1Ra): -
[1]
  IL-1Ra: -

## (AcKAK)4(KAEY)2KAEA-OH [Ac20]
[1]
  IL-1Ra: -

## (ClAcAKA)4(KKEY)2KE-OH [ClAc10]
[1]; Table S1 initial library
  Act. (ability to induce IL-1Ra): -
[1]
  IL-1Ra: -

## (ClAcKA)4(KAYE)2KK-OH [ClAc6]
[1]; Table S1 initial library
  Act. (ability to induce IL-1Ra): -
[1]
  IL-1Ra: -

## (ClAcKEAKY)4(KKYEA)2KEKAYKA-NH2 [ClAc27]
[1]
  IL-1Ra: -

## (ClAcAKE)4(KKAY)2KYKY-NH2 [ClAc22]
[1]
  IL-1Ra: -

## (AcAKA)4(KEY)2KYKK-NH2 [Ac15]
[1]; Table S1 initial library
  Act. (ability to induce IL-1Ra): -
[1]
  IL-1Ra: -

## (K)4(KAYAEY)2KAKAEYA-NH2 [compound 17]
[1]; Table S1 initial library
  Act. (ability to induce IL-1Ra): -
[1]
  IL-1Ra: -

## (KYA)4(KAE)2KAEYKCA-NH2 [compound 23]
[1]
  IL-1Ra: -

## (ClAcK)4(KEAKAKEY)2KAKEYEY-OH [ClAc25]
[1]
  IL-1Ra: -

## (ClAcK)4(KAYE)2KAKYAEA-NH2) [ClAc13]
[1]; Table S1 initial library
  Act. (ability to induce IL-1Ra): -
[1]
  IL-1Ra: -

## (AcKYA)4(KEA)2KKKA-OH [Ac14]
[1]; Table S1 initial library
  Act. (ability to induce IL-1Ra): -
[1]
  IL-1Ra: -

## (ClAcAKA)8(KYEK)4(KEKA)2KAKY-OH [ClAc3]
[1]; Table S1 initial library
  Act. (ability to induce IL-1Ra): -
[1]
  IL-1Ra: -

From PMC9298260, “An Immunomodulatory Peptide Dendrimer Inspired from Glatiramer Acetate” (Angewandte Chemie (International Ed. in English), 2021)
